System: BMAL1 gene
Experiment: Evaluation of the BMAL1 gene-expression-promotion activity (BMAL1 mRNA amount via reverse-transcribed cDNA)
Assay type: cell-based
Details: rat-muscle myoblasts C2Cl2, differentiation-induction, cultivated one week; 3 μg/mL; Dunnett, ** p<0.01
Experimental: Differentiation-induction was done to the rat-muscle myoblasts C2Cl2. At the same time, the purple-tea extract of 0.1, 1.0, 3.0 and 10 μg/mL, and the GHG of 0.1, 1.0 and 3 μg/mL, was respectively added to such myoblasts and cultivated for one week. After that, an RNA extraction was done to determine, by using a reverse-transcribed cDNA, the amount of mRNA and of the BMAL1 gene.
A significance-test was done by the Dunnett Method, and the double asterisk ** means p<0.01. Also, no active components were added to the “control,” but the purple-tea extract (GHG-content extract) was added to the “PTE.”

With `O=C(OC1OC2COC(=O)c3cc(O)c(O)c(O)c3-c3c(cc(O)c(O)c3O)C(=O)OC2C(O)C1OC(=O)c1cc(O)c(O)c(O)c1)c1cc(O)c(O)c(O)c1` [GHG, 1,2-di-O-galloyl-4,6-O—(S)-hexahydroxydiphenoyl-ß-D-glucose] the “expression-level of the BMAL1 gene against the Control” value was “significantly was seen to have increased”.

From patent publication US20190343858A1, “METHOD OF REGULATING THE CIRCADIAN RHYTHM OF AN INDIVIDUAL COMPRISING ADMINISTERING AN EFFECTIVE AMOUNT OF A CIRCADIAN RHYTHM REGULATOR CONTAINING 1,2-DI-O-GALLOYL-4,6-O-(S)-HEXAHYDROXYDIPHENOYL-B-D-GLUCOSE” (ORYZA OIL & FAT CHEMICAL CO., LTD,, priority 2017, published 2019)
